# Test results published in a melting point compilation (Tetko et al.; mined from patent text by program, amines drawn as free bases though some values may be those of a salt).
row,melting point [°C],Compound
1,261 to 264,O=C(O)c1ccc(-c2ccc3cc(O)c(C45CC6CC(CC(C6)C4)C5)cc3c2)cc1O
2,101 to 102,CCOC(=O)c1cc2c(C)ccc3c2n1CCO3
3,114 to 116,[N-]=[N+]=Nc1cc(Cl)nc(-c2ccc([N+](=O)[O-])o2)n1
4,129 to 133,CCOC(=O)C1C=CC(c2ccccc2)n2c(=O)n(CO)c(=O)n21 (centres undefined)
5,246 to 248,CN1C(=O)C(=NO)C(=NCCCCCC(=O)O)N(C)C1=O
6,174 to 176,Cc1cccc2ncc(C(=O)NC3CC3)c(=O)n12
7,193 to 195,COc1ccc(C(=O)Nc2ccc(C(C)(C)C(N)=O)cc2)cc1OC
8,213,N#CC(Cc1ccc(Cl)cc1)c1c(Cl)cc(N2N=CCNC2=O)cc1Cl (centres undefined)
9,78,O=C1CCCCCCCCCCC=CCCCCCCCCCCC1O (centres undefined)
10,120 to 121,CCC(CC)c1nn(-c2ccc(Br)cn2)cc1CCCOc1c(C)cccc1CC(=O)O
11,56 to 57,COC(=O)C(=O)c1ccc(Cl)cc1
12,220 to 222,NNc1nc(N)c2ncn(COCCO)c2n1
13,147 to 149,COc1cc(O)c(C(=O)C=Cc2ccc3nc[nH]c3c2)c(OC)c1
14,108,CCCCOc1nc(=O)n(C(=O)NC)s1
15,> 250,NCC1Cc2cc(C(F)(F)F)cc(-c3ccoc3)c2O1 (centres undefined)
16,189 to 193,CC(=O)c1ccc(N)c(C#N)c1Cl
17,94 to 95,CCOc1ccc(C(=O)c2ccccc2F)c(Cl)c1Cl
18,75 to 76,CON=C(OCC(=O)OC)C(Cl)=Cc1cc(-n2ncc(C(F)(F)F)c(C)c2=O)c(F)cc1Cl
19,95,Cc1cc(Oc2cccc(C#N)n2)n(C)n1
20,169 to 172,CN(C)C(=O)COc1ccc2c(c1)C[C@@H](NC[C@H](O)c1ccc(O)cc1)CC2
21,160 to 162,COc1ccc(C(=O)c2ccc([N+](=O)[O-])cc2)cc1OC
22,136,CC(C)CCCC(=O)OC1c2ccccc2C(=O)N1c1ccc2ccc(Br)nc2n1 (centres undefined)

row,melting point [°C],Compound
1,134 to 136,O=C(O)CC1(C(=O)OCc2ccccc2)C(=O)N(Cc2ccc(Cl)c(Cl)c2)C(=O)c2cccn21 (centres undefined)
2,208 to 210,CC(C)NC(=S)Nc1cccc(-c2ccnc3c(C(=O)c4cccs4)cnn23)c1
3,186 to 187,COC(=O)C=Cc1cc(O)c(O)c([N+](=O)[O-])c1
4,177 to 178,Cc1cc(NCc2ccccc2)c(N)c(Cl)n1
5,260 to 262,Cc1cc(-c2nnc3c4ccccc4c(OCc4nc[nH]n4)nn23)no1
6,97 to 98,Cc1csc(NC(=O)N(C)C)n1
7,133 to 135,O=C1CC(C(=O)O)(c2ccccc2)C1
8,140 to 141,COC12CC(C)(C)C(O1)C(OC(=O)c1ccc([N+](=O)[O-])cc1)C=C2C (centres undefined)
9,69.5 to 70,CN(C)Cc1cc(CCCCCCCOc2ccc(C3=NCCO3)cc2)on1
10,227 to 230,O=c1[nH]c2cc(Cl)cc(Cl)c2c(=O)n1Cc1ccc([N+](=O)[O-])cc1
11,144 to 146,c1coc(C2=Nc3ccccc3N3CCc4cccc2c43)c1
12,137 to 138,O=C(O)CCc1cn(Cc2ccc(OCc3csc(-c4cnccn4)n3)cc2)cc1-c1ccccc1
13,38 to 39,O=S(=O)(c1ccccc1)C(F)(F)C(F)Cl (centres undefined)
14,146 to 149,CCCCCCC(Oc1ccc(NC(=O)NC(=O)c2c(Cl)cccc2Cl)cc1)c1ccccc1 (centres undefined)
15,82,CN(C(=O)COc1nc(F)ns1)c1ccccc1
16,278 to 280,CC1CCN(c2ccc(Nc3ncc4c(n3)SCC(=O)N4)cc2)CC1
17,181 to 185,COc1ccc(C2OCCN2CCNc2ccc(NCCN3CCOC3c3ccc(OC)cc3OC)c3c2C(=O)c2c(O)ccc(O)c2C3=O)c(OC)c1 (centres undefined)
18,87 to 88,CC=CCN1c2cc(Cl)ccc2NC(=O)[C@@H]1C
19,145 to 147,O=[N+]([O-])c1ccccc1-c1ccc(Br)cc1[N+](=O)[O-]
20,243 to 245,Cc1c(C(=O)OC(C)C)ncc2[nH]c3cccc(Oc4ccc(Cl)cn4)c3c12
21,69 to 71,Cc1ccc(C(Cl)=NO)cc1
22,130,CC(=O)OC1CSC(Oc2cccc(-c3ccc(C#N)nc3)c2)C(OC(C)=O)C1OC(C)=O (centres undefined)

row,melting point [°C],Compound
1,148 to 150,O=C(CCCN1CCN(c2cc3ccccc3cn2)CC1)c1ccc(F)cc1
2,242 to 245,Cn1nc(-c2ccc(O)cc2)ccc1=O
3,119,NNC(=O)C(O)c1cc(F)cc(F)c1 (centres undefined)
4,188 to 191,Cc1c(-c2ccc(Cl)c(Cl)c2)n(-c2ccccc2)c(-c2ccccc2)cc1=O
5,218 to 220,CC(C)(C)CN1C(=O)[C@@H](CC(=O)Nc2cccc(-c3nnn[nH]3)c2)O[C@H](c2ccccc2Cl)c2cc(Cl)ccc21 (relative stereo)
6,200 to 202,Cc1cn(N=Cc2cccnc2)c(=O)[nH]1
7,154 to 156,CC1(c2ccc3cc(C(O)c4cccnc4)ccc3c2)OCCO1 (centres undefined)
8,140 to 143,CS(=O)(=O)c1ccc(-c2sc(COc3ccc(Cl)cc3)nc2-c2ccc(F)cc2)cc1
9,117 to 120,NC(=O)COC(=O)c1ccccc1Cl
10,202 to 203,CCOC(=O)Cc1n[nH]c(=O)c2cc(Cl)c(Cl)cc12
11,64 to 65,CCCCCCCCCCCCCCCCC[C@@H](C[C@@H]1OC(=O)[C@H]1CCCCCC)OC(=O)[C@H](CC(C)C)NC=O
12,129 to 130,O=C(CCCCN1CCCCC1)c1ccc2c(c1)Cc1cc(C(=O)CCCCN3CCCCC3)ccc1O2
13,80 to 82,CC(C)S(=O)(=O)ON=C(C#N)c1cccs1
14,122 to 127,COc1cccc2c(CCCCN(C3CCC3)C3COc4c(F)ccc(C(N)=O)c4C3)coc12 (centres undefined)
15,123,O=C(COc1ccc(CCNS(=O)(=O)c2ccccc2)cc1)Nc1ccccc1
16,33 to 36,CN(C)C(=O)c1ccccc1I
17,53 to 54,C=CCOc1ccc2nc(OCC=C(C)C)ccc2c1
18,70,N#Cc1ccccc1CNC(=O)C1Cc2ccccc2N1S(=O)(=O)c1ccc(-c2cccc(C(F)(F)F)c2)cc1 (centres undefined)
19,222 to 223,CN1NN=C(NC(=O)c2cccc3cccnc23)N1
20,158 to 160,COC(=O)CCCc1cc2cc(Cl)ccc2n1S(=O)(=O)c1ccc(N)c(N)c1
21,107 to 110,Clc1nc(SCc2cccc3ccccc23)nc2c1CCN2
22,108 to 110,O=CC1=CC2=C(OC1)c1ccccc1S(=O)(=O)N2

row,Compound,melting point [°C]
1,O=C(O)Cc1ccccc1CBr,110
2,OCCc1c(C2=CCC(c3ccccc3)(N3CCCC3)CC2)[nH]c2ccc(F)cc12 (centres undefined),188 to 191
3,CCCN1C(=O)C2C3CCC(O3)C2C1=O (centres undefined),79 to 80
4,CCCn1cc(C(=O)Nc2nccs2)c2ccc(Cl)cc21,175 to 176
5,CN1CCN(c2cccc3ccc(-c4cccc(F)c4)cc23)CC1,116
6,CNC(=O)CN1CCC(O)C1=O (centres undefined),129 to 130
7,CCNC(=O)N1N=C(c2ccc([N+](=O)[O-])cc2)c2cc(Cl)ccc2CC1C (centres undefined),170 to 172
8,Cc1nsc(OCC(Cl)(Cl)Cl)c1S(=O)(=O)Cl,71 to 74
